Test results: patent US20100267734A1, “N-[(3,5-DICHLOROPHENYL)METHYL]-2-(4-METHYL-1-PIPERAZINYL)-2-(1-NAPHTHALENYL)ETHANAMIDE AS GHRELIN RECEPTOR MODULATOR” (Glaxo Group Limited, priority 2007, published 2010)
Where a name gives a salt, the structure may show the parent alone.

Experiments:
Human GHSR [1] = target: T1, Human GHSR (Homo sapiens, UniProt Q92847); test: GHS-R GTPγS functional antagonist assay; assay type: biochemical; design: The full-length gene was transferred into pCDN for expression analysis; expressed in transfected cells; host or cells: CHO cells (electroporated, pCDN) or HEK293T cells (transient, pcDNA3); membranes prepared from the cultured cells; details: membranes of HEK293T cells transiently expressing GHS-R; human Ghrelin at EC80; [35S]GTPγS SPA
T1 sequence (Q92847 whole entry): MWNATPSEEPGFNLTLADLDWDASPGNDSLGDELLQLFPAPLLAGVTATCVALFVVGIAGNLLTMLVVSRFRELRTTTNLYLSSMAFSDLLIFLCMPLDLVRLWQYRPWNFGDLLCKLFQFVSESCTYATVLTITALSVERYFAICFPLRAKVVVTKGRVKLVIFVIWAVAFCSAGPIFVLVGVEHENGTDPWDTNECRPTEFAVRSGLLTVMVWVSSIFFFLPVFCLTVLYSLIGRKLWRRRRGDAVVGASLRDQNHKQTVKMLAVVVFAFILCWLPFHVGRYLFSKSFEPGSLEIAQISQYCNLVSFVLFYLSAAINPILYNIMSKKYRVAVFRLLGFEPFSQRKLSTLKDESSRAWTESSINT
Protocol: Human GHS-R was cloned from human hypothalamus cDNA and TOPO Ta cloned into pCR2.1. The sequence was confirmed. The full-length gene was transferred into pCDN for expression analysis. The sequence was confirmed again and the plasmid was electroporated into CHO cells. The clones were screened by FLIPR.
HEK293T cells (HEK293 cells stably expressing the SV40 large T-antigen) were maintained in DMEM containing 10% (v/v) newborn calf serum and 2 mM glutamine. Cells were seeded in 60 mm culture dishes and grown to 60-80% confluency (18-24 h) prior to transfection with pcDNA3 containing the relevant DNA species using Lipofectamine reagent. […]
The plate was then incubated on a shaker at room temperature for 30 mins followed by centrifugation for 5 mins at 1500 rpm. The plate was read between 3 and 6 hours after completion of centrifuge run in a Wallac Microbeta counter on a 1 min normalised tritium count protocol. Data was analysed using a 4-parameter logistic equation. […]
Protocol as described above for functional agonist assay, except prior to addition of the [35-S], 10 ul of human Ghrelin solution in assay buffer was added to give a final concentration equating to EC80 (determined for each assay).

Human GHSR [2] = target: T1, Human GHSR; test: GHSR Antagonist BACMAM FLIPR Assay (Method B); assay type: cell-based; design: The full-length gene was transferred into pCDN for expression analysis; expressed in transfected cells; host or cells: U2OS cells transduced with human GHSR BacMam virus (pFastBacmam, CMV promoter); details: U2OS cells transduced with human GHSR BACMAM virus, EC80 hGhrelin, accurate to within ±0.5
Excerpt: Human GHS-R was cloned from human hypothalamus cDNA and TOPO Ta cloned into pCR2.1. The sequence was confirmed. The full-length gene was transferred into pCDN for expression analysis. The sequence was confirmed again and the plasmid was electroporated into CHO cells. The clones were screened by FLIPR. The open reading frame of GHS-R was transferred from pCDN into pFastBacmam vector. This vector was used to generate recombinant baculoviruses in which the insect cell-specific polyhedrin promoter has been replaced with a mammalian cell-active promoter, in this case CMV. This was then used with the Bac to Bac expression system (Invitrogen). Briefly the vector was transformed into DH10 bac E. coli and the bacmid isolated from the transformed cells. The bacmid was then transfected into Sf9 insect cells grown in ExCell 420 (JRH) medium in 6-well dishes for the production of recombinant baculovirus particules. 24 hours prior to assay U2OS cells at confluence 100% were harvested and spun down. The supernatant was removed and the cells resuspended in media (DMEM+10% FBS+1% L-Glutamine). […] Human GHSR BACMAM virus was added to the cell suspension at an appropriate % volume (calculated for individual batches of BACMAM virus as viral titres vary). […] Maximum changes in fluorescence were plotted and curves fitted using a 4-parameter logistic equation to generate pIC50 values.

Human GHSR [3] = target: T1, Human GHSR; test: GHSR Agonist BACMAM FLIPR Assay (Method Y); assay type: cell-based; design: The full-length gene was transferred into pCDN for expression analysis; expressed in transfected cells; host or cells: U2OS cells transduced with human GHSR BacMam virus (pFastBacmam, CMV promoter); details: U2OS cells transduced with human GHSR BACMAM virus, accurate to within ±0.5
Excerpt: Human GHS-R was cloned from human hypothalamus cDNA and TOPO Ta cloned into pCR2.1. The sequence was confirmed. The full-length gene was transferred into pCDN for expression analysis. The sequence was confirmed again and the plasmid was electroporated into CHO cells. The clones were screened by FLIPR. The open reading frame of GHS-R was transferred from pCDN into pFastBacmam vector. This vector was used to generate recombinant baculoviruses in which the insect cell-specific polyhedrin promoter has been replaced with a mammalian cell-active promoter, in this case CMV. This was then used with the Bac to Bac expression system (Invitrogen). Briefly the vector was transformed into DH10 bac E. coli and the bacmid isolated from the transformed cells. […] Human GHSR BACMAM virus was added to the cell suspension at an appropriate % volume (calculated for individual batches of BACMAM virus as viral titres vary). […] The plates were placed in a FLuorimetric Imaging Plate Reader (FLIPR, Molecular Devices) where 10 μl of compound was added to the cells and fluorescence measurements were taken. […] Intrinsic activity of the compounds was calculated by using the maximum asymptote of it's concentration response curve relative to the maximum asymptote of the hGhrelin concentration response curve.

| Compound | Ki (Human GHSR [1]) [nM] | IC50 (Human GHSR [2]) [nM] | EC50 (Human GHSR [3]) [nM] |
| --- | --- | --- | --- |
| CN1CCN(C(C(=O)NCc2cc(Cl)cc(Cl)c2)c2cccc3ccccc23)CC1 (racemic) [Compound 1, (±)-N-[(3,5-dichlorophenyl)methyl]-2-(4-methyl-1-piperazinyl)-2-(1-naphthalenyl)ethanamide] | < 10 |  |  |
| CN1CCN([C@@H](C(=O)NCc2cc(Cl)cc(Cl)c2)c2cccc3ccccc23)CC1 [Compound 3, (2R)-N-[(3,5-dichlorophenyl)methyl]-2-(4-methyl-1-piperazinyl)-2-(1-naphthalenyl)ethanamide hydrochloride] | < 10 | 10 | > 2000 |
